Experimental data reported in publication PMC4946153 (Cardiovascular Diabetology, 2016).
Like-named read-outs stand apart in the source and are kept apart here.

Experiments:
[1] = system: H9c2-E2 cells (H9c2 overexpressing the human insulin receptor); test: Caspase 3/7 activity assay in H9c2-E2 cells; format: cell-based, rat; details: for prevention of H2O2-induced caspase 3/7 activation (in words): 100 nM + 800 µM H2O2, 2 h
Procedure: (§1) The cardiac mouse cell line HL-1, a cell line derived from the AT-1 mouse atrial cardiomyocyte tumour lineage, was kindly provided by Dr. W.C. Claycomb (Louisiana State University, New Orleans, LA, USA). HL-1 cells were cultivated in Claycomb medium containing 10 % fetal calf serum (FCS), 100 µM norepinephrine and 4 mM L-glutamine (all from Sigma-Aldrich, Munich, Germany) on gelatine/fibronectin coated plates. H9c2 cells (ATCC CRL-1446), stably transfected with the human IR in our laboratory (H9c2-E2) were cultivated in DMEM, low glucose containing 10 % FCS, 1 % non–essential amino acids and 600 µg/ml G418 (all from Invitrogen, Carlsbad, CA, USA). Commercially available iPS-derived human cardiomyocytes (Cor.4U®) (Axiogenesis, Cologne, Germany) were cultured in Cor.4U® Complete Medium containing 10 % FCS on fibronectin–coated 96-well E-Plate (Acea Biosciences, San Diego, CA, USA). The medium was changed twice daily. All cells were incubated at 37 °C with 5 % CO2 in a humidified incubator.
Caspase 3/7 activity was then measured by the caspase-Glo® 3/7 assay system (Promega, Madison, Wisconsin, USA) as described in the manual. After 2 h incubation period caspase 3/7 activity was analysed by measuring the luminescence in an Infinite 200 plate reader (Tecan, Männedorf, Switzerland).

[2] = system: Cor.4U human iPSC-derived cardiomyocytes; test: Beating-rate by impedance measurement in human Cor.4U cells; format: cell-based; details: 500 nM; for time to maximum beating-rate / beating-rate, area under the curve for 6 h: n = 4; for beating-rate, area under the curve for 6 h: vs. basal
Procedure: as §1
Cor.4U® cardiomyocytes were seeded at a density of 30,000 cells per well. From day 3 on the cells were cultured in Iscove’s Basal Medium containing 1 % GlutaMAX supplement (both Life Technologies, Carlsbad, CA, USA) and 2 µg/ml Ciprobay (Bayer, Leverkusen, Germany). […] Impedance of each well was measured with the RTCA Cardio xCELLigence Analyser (Acea Biosciences, San Diego, CA, USA) during the whole experiment. Beating-rate and cell index were analysed by RTCA cardio software (Acea Biosciences, San Diego, CA, USA).

[3] = system: adult rat ventricular cardiomyocytes (ARVM); test: Contractility of paced adult rat ventricular cardiomyocytes; format: cell-based; details: 100 nM, 5 min pre-treatment, ARVM paced 1 Hz, 15 V, 0.5 ms, 37 °C; vs. control; n = 4
Procedure: Adult rat ventricular cardiomyocytes (ARVM) were isolated from wild-type Lewis rats (Lew/Crl) as previously described. […] Subsequently, ARVM were cultivated over-night in DMEM/F12 containing 33 µM biotin and 17 µM pantothenate (Invitrogen, Carlsbad, CA, USA). […] Furthermore, untreated ARVM or ARVM treated with 10 nM isoproterenol (Sigma-Aldrich, Munich, Germany) were immediately measured. ARVM were paced with bipolar pulses in a contractility and fluorescence system (IonOptix, Milton, MA, USA) at 15 V, 1 Hz, 0.5 ms, at 37 °C for up to 10 min and 10–14 contractions of at least 10 rod–shaped ARVM per condition were recorded. Sarcomeric shortening, shortening rate and re-lengthening rate were calculated using the IonWizard software (IonOptix, Milton, MA, USA). […] Afterwards, ARVM were treated as described above. […] Microscopic pictures were taken randomly with at least 10 pictures per condition. As a positive control 200 µM H2O2 was utilised. For each condition at least 400 cells were counted per experiment.

[4] = system: cardiovascular outcome in patients; details: DEVOTE interim analysis; ref [16], [17]; cited from earlier work
Excerpt: (§2) So far, finalised clinical data is only available for IGla, whereas for IDeg the investigation is still ongoing.

HL-1 cells = test: 2-deoxy-D-glucose uptake in HL-1 cardiomyocytes; format: cell-based, mouse; details: 200 nM, 60 min
Procedure: as §1
HL-1 cells were seeded at a density of 400,000 cells per well in a 12-well plate. […] Incorporated glucose was measured by scintillation counting of the cell lysates in a liquid scintillation counter (Beckman Coulter, Pasadena, CA, USA). Values were corrected for non-specific uptake as measured by incubation with L-[^14C]glucose (PerkinElmer, Waltham, MA, USA).

[5] = system: insulin receptor (membrane embedded, M-IR; CHO-cells overexpressing the IR); test: Competition binding, membrane embedded IR (M-IR)
Procedure: Briefly, CHO-cells overexpressing the IR were collected and re-suspended in ice-cold 2.25 STM buffer (2.25 M sucrose, 5 mM Tris–HCl pH 7.4, 5 mM MgCl2, complete protease inhibitor) and disrupted using a Dounce homogenizer followed by sonication. The homogenate was overlaid with 0.8 STM buffer (0.8 M sucrose, 5 mM Tris–HCl pH 7.4, 5 mM MgCl2, complete protease inhibitor) and ultra-centrifuged for 90 min at 100,000g. Plasma membranes at the interface were collected and washed twice with phosphate buffered saline (PBS). The final pellet was re-suspended in dilution buffer (50 mM Tric-HCl pH 7.4, 5 mM MgCl2, complete protease inhibitor) and again homogenised with a Dounce homogenizer. Competition binding experiments were performed in a binding buffer (50 mM Tris–HCl, 150 mM NaCl, 0.1 % BSA, complete protease inhibitor, adjusted to pH 7.8) in 96-well microplates. In each well 2 µg isolated membrane were incubated with 0.25 mg wheat germ agglutinin polyvinyltoluene polyethylenimine scintillation proximity assay (SPA) beads. […] The radioactivity was measured at equilibrium in a microplate scintillation counter (Wallac Microbeta, Freiburg, Germany).
(§3) Results are expressed as mean values ± SEM of at least three independent experiments. For statistical analysis Graphpad Prism v5.00 (Graphpad Software, San Diego, CA, USA) was used. One-way ANOVA was performed to determine significance between conditions, with level of significance chosen at p < 0.05. In case of IC50 determinations for binding, a non-parametric Kruskal–Wallis testing was performed, again with level of significance chosen at p < 0.05.

[6] = target: insulin receptor (solubilised, S-IR); test: Competition binding, solubilised IR (S-IR)
Procedure: Binding on a freshly solubilised IR preparation (S-IR) was performed as previously described with some modifications. Aliquots of membranes were incubated at 4 °C for 30 min in a solubilisation buffer (20 mM HEPES–NaOH, 100 mM NaCl, 10 mM MgSO4, 1 % (w/v) n-Dodecyl-ß-D-maltoside (Sigma-Aldrich, Munich, Germany), adjusted to pH 7.8 and Complete TM Protease Inhibitor cocktail). Thereafter, ultra-centrifugation was performed at 100,000g for 30 min and 4 °C to remove non–solubilised debris. Protein concentration in the supernatant was adjusted to 0.15 mg/ml with binding buffer (100 mM HEPES–NaOH, 100 mM NaCl, 10 mM MgSO4, 0.025 % (v/v) Tween-20, adjusted to pH 7.8 and complete TM protease inhibitor cocktail). To streptavidin SPA beads (5 mg in […] binding buffer), 50 µl of an anti-IR alpha-antibody 83-7 (Abcam, Cambridge, UK) was added. After incubation for 30 min, SPA beads were once washed and finally re-suspended in 500 µl binding buffer. A solution of solubilised receptor (1 ml, 0.15 mg/ml) was added and incubated for further 60 min, before washing and resuspension in 1.5 ml.
as §3

[7] = system: Akt(Ser473) phosphorylation in HL-1 cells; test: Akt(Ser473) phosphorylation in HL-1 cells, Western blot; format: cell-based, mouse; details: for Akt(Ser473) phosphorylation level: vs. Ins and other analogues
Procedure: as §1

[8] = system: Akt(Thr308) phosphorylation in HL-1 cells; test: Akt(Thr308) phosphorylation in HL-1 cells, Western blot; format: cell-based, mouse; details: n = 3
Procedure: as §1

[9] = system: cardiovascular effects in patients; details: ORIGIN trial, ref [15]; cited from earlier work
Excerpt: as §2

[10] = 200 nM, 60 min, HL-1, normalised to tubulin, n = 4-5

## OO [H2O2, reference compound]
[1]; 800 µM H2O2, 2 h, H9c2-E2, vs. basal, n = 5-6
  induction of caspase 3/7 activity: 4.8 fold
[1]; H2O2 challenge, H9c2-E2
  induction of caspase 3/7 activity (in words): fivefold increase

## insulin
[2]
  time to maximum beating-rate: 10 min
  beating-rate, area under the curve for 6 h: significant increase
[3]
  increase in departure velocity (shortening rate): ~ twofold
  increase in return velocity (re-lengthening rate): ~ threefold
  increase in sarcomeric shortening: ~ 2.5 fold
[1]; 100 nM insulin + 800 µM H2O2, 2 h, H9c2-E2, n = 5-6
  decrease of caspase 3/7 activity compared to H2O2 treatment alone: up to 70.3%

## insulin degludec [IDeg]
[4]
  major adverse cardiovascular outcome vs IGla: non-inferiority to IGla
HL-1 cells
  glucose uptake, comparison between insulins: no difference
[5]
  IR affinity (in words): very low binding affinities
[5]; 2 µg isolated membrane, WGA-PVT-PEI SPA beads, 100 pM [125I]-human Ins, pH 7.8, 12 h at 23 °C, mean ± SEM, at least four independent experiments in quadruplicates, read-out: IR affinity IC50
  IC50: 19.6 ± 1.1 nM
[5]; listed as Insulin degludec
  IR affinity (in words): significant lower IR affinity
[5]; ratio of IC50 vs. Ins
  IC50 fold higher compared to Ins: 23.6 fold
[5]; relative to Ins
  binding affinity compared to Ins: ~ 4%
[2]
  onset of action on beating-rate: slower onset of action
  time to maximum beating-rate: 20 min
  beating-rate, area under the curve for 6 h: significant increase
[3]
  increase in departure velocity (shortening rate): ~ twofold
  increase in return velocity (re-lengthening rate): ~ threefold
  increase in sarcomeric shortening: ~ 2.5 fold
[1]; H9c2-E2
  prevention of H2O2-induced caspase 3/7 activation (in words): same potency to prevent caspase 3/7 activation as Ins
[6]; anti-IR antibody 83-7 SPA, 100 pM [125I]-insulin, pH 7.8, 12 h at 23 °C, mean ± SEM, at least six times on different days, quadruplicates, read-out: IR affinity IC50
  IC50: 3.12 ± 0.42 nM
[6]; ratio of IC50 vs. Ins
  IC50 fold higher compared to Ins: 5.4 fold
[6]; this paper
  binding affinity relative to human insulin: ~ 18.6%
[7]; 200 nM, 5 min, HL-1, normalised to tubulin, n = 4-5
  Akt(Ser473) phosphorylation level: significantly lower
[7]; 200 nM, 10 min, HL-1, normalised to tubulin, n = 4-5
  Akt(Ser473) phosphorylation level: significantly lower
[7]; [10]
  Akt(Ser473) phosphorylation level compared to IGla: still significantly lower
  Akt(Ser473) phosphorylation level compared to Ins and IGlaM1: similar
[7]; HL-1, 5- and 10-min incubation, compared to insulin, insulin glargine and M1
  Akt(Ser473) phosphorylation: lower
[8]; 200 nM, 5, 10 and 60 min, HL-1, same kinetic as for Akt(Ser473)
  Akt(Thr308) phosphorylation, kinetic: The same kinetic was observed
[8]; 200 nM, 5- and 10-min incubation, HL-1, compared to insulin, insulin glargine and M1
  Akt(Thr308) phosphorylation: lower

## insulin glargine [IGla]
[9]
  cardiovascular effects vs standard care treatment: non-inferiority
HL-1 cells
  glucose uptake, comparison between insulins: no difference
[2]
  time to maximum beating-rate: 10 min
  beating-rate, area under the curve for 6 h: significant increase
[3]
  increase in departure velocity (shortening rate): ~ twofold
  increase in return velocity (re-lengthening rate): ~ threefold
  increase in sarcomeric shortening: ~ 2.5 fold
[1]; H9c2-E2
  prevention of H2O2-induced caspase 3/7 activation (in words): same potency to prevent caspase 3/7 activation as Ins
